Literature values as cited in patent US6107305A, “Use of pyrazolo [3,4-b] pyridine as cyclin dependent kinase inhibitors” (Bristol-Myers Squibb Company, priority 1998, dated 2000).

What was measured:
apoptosis = conditions: J. Cell Sci., 108, 2897 (1995)

Row | SMILES | effect of sequence of administration with anticancer agents on cytotoxic activity (cytotoxic activity) | synergism with known cytotoxic agents in inducing apoptosis (apoptosis)
1 | CN1CC[C@H](c2c(O)cc(O)c3c(=O)cc(-c4ccccc4Cl)oc23)[C@H](O)C1 [flavopiridol] | affected by the sequence of administration with anticancer agents | –
2 | Cn1cnc2c(NCc3ccccc3)nc(NCCO)nc21 [olomucine] | – | act synergistically with known cytotoxic agents in inducing apoptosis
